Tested on: rabbits
Experiment: Tissue proton T1 and T2 relaxation times 15 min after intravenous administration (dose-response)
Type: in vivo
Settings: for T1 relaxation time / T2 relaxation time: 10 mHz RADX
Procedure: All experiments employing the complex dihydrogen bis(N-[N′-(2,6-dimethylphenyl)carbamoylmethyl]iminodiaceto)manganese (II) trihydrate were conducted following intravenous administration to rabbits. A 10 mM solution of the complex was used in these studies. Rabbits were anesthetized with ketamine/xylazine prior to treatment. The results given were obtained with a 10 mHz RADX proton spin analyzer.
Dose-response experiments were conducted on rabbits following intravenous injection of 0.01-0.10 mmol of the complex/kg. […]

[1] = 0.01-0.10 mmol/kg i.v., rabbits, 15 min
[2] = Bladder, 15 min after 0.01 mmol/kg i.v., rabbits
[3] = Bladder, 15 min after 0.03 mmol/kg i.v., rabbits
[4] = Bladder, 15 min after 0.08 mmol/kg i.v., rabbits
[5] = Bladder, 15 min after 0.10 mmol/kg i.v., 1 rabbit
[6] = Blood, 5 min, 0.01 mmol/kg i.v., rabbits
[7] = Blood, 5 min, 0.03 mmol/kg i.v., rabbits
[8] = Blood, 5 min, 0.08 mmol/kg i.v., rabbits
[9] = Blood, 5 min, 0.10 mmol/kg i.v., 1 rabbit
[10] = Blood, 10 min, 0.01 mmol/kg i.v., rabbits
[11] = Blood, 10 min, 0.03 mmol/kg i.v., rabbits
[12] = Blood, 10 min, 0.08 mmol/kg i.v., rabbits
[13] = Blood, 10 min, 0.10 mmol/kg i.v., 1 rabbit
[14] = Blood, 15 min, 0.01 mmol/kg i.v., rabbits
[15] = Blood, 15 min, 0.03 mmol/kg i.v., rabbits
[16] = Blood, 15 min, 0.08 mmol/kg i.v., rabbits
[17] = Fat, 15 min after 0.01 mmol/kg i.v., rabbits
[18] = Fat, 15 min after 0.03 mmol/kg i.v., rabbits
[19] = Fat, 15 min after 0.08 mmol/kg i.v., rabbits
[20] = Fat, 15 min after 0.10 mmol/kg i.v., 1 rabbit
[21] = Heart, 15 min after 0.01 mmol/kg i.v., rabbits
[22] = Heart, 15 min after 0.03 mmol/kg i.v., rabbits
[23] = Heart, 15 min after 0.08 mmol/kg i.v., rabbits
[24] = Heart, 15 min after 0.10 mmol/kg i.v., 1 rabbit
[25] = Large Intestine, 15 min after 0.01 mmol/kg i.v., rabbits
[26] = Large Intestine, 15 min after 0.03 mmol/kg i.v., rabbits
[27] = Large Intestine, 15 min after 0.08 mmol/kg i.v., rabbits
[28] = Large Intestine, 15 min after 0.10 mmol/kg i.v., 1 rabbit
[29] = Large Intestine, rabbits, 15 min
[30] = Liver, 15 min after 0.01 mmol/kg i.v., rabbits
[31] = Liver, 15 min after 0.03 mmol/kg i.v., rabbits
[32] = Liver, 15 min after 0.08 mmol/kg i.v., rabbits
[33] = Liver, 15 min after 0.10 mmol/kg i.v., 1 rabbit
[34] = Lung, 15 min after 0.01 mmol/kg i.v., rabbits

SMILES: Cc1cccc(C)c1NC(=O)CN(CC(=O)[O-])CC(=O)O.Cc1cccc(C)c1NC(=O)CN(CC(=O)[O-])CC(=O)O.O.O.O.[Mn+2] [Example 2]
- effect on tissue T1 relaxation times [1]: dose-related decrease
- effect on tissue T2 relaxation times [1]: minimally affected
- T1 relaxation time [2]: 380 ms
- T2 relaxation time [2]: 84 ms
- T1 relaxation time [3]: 312 ms
- T2 relaxation time [3]: 68 ms
- T1 relaxation time [4]: 173 ms
- T2 relaxation time [4]: 60 ms
- T1 relaxation time [5]: 159 ms
- T2 relaxation time [5]: 61 ms
- Approximate ED50, intravenous dose to reduce tissue T1 by 50% (Bladder, rabbits, 15 min): 0.060 mmol/kg
- Approximate ED50, intravenous dose to reduce tissue T2 by 50% (Bladder, rabbits, 15 min): 0.51 mmol/kg
- T1 relaxation time [6]: 554 ms
- T2 relaxation time [6]: 161 ms
- T1 relaxation time [7]: 192 ms
- T2 relaxation time [7]: 110 ms
- T1 relaxation time [8]: 70 ms
- T2 relaxation time [8]: 56 ms
- T1 relaxation time [9]: 64 ms
- T2 relaxation time [9]: 55 ms
- T1 relaxation time [10]: 604 ms
- T2 relaxation time [10]: 165 ms
- T1 relaxation time [11]: 283 ms
- T2 relaxation time [11]: 119 ms
- T1 relaxation time [12]: 96 ms
- T2 relaxation time [12]: 72 ms
- T1 relaxation time [13]: 398 ms
- T2 relaxation time [13]: 179 ms
- T1 relaxation time [14]: 639 ms
- T2 relaxation time [14]: 171 ms
- T1 relaxation time [15]: 368 ms
- T2 relaxation time [15]: 141 ms
- T1 relaxation time [16]: 115 ms
- T2 relaxation time [16]: 82 ms
- T1 relaxation time [17]: 148 ms
- T2 relaxation time [17]: 129 ms
- T1 relaxation time [18]: 136 ms
- T2 relaxation time [18]: 122 ms
- T1 relaxation time [19]: 125 ms
- T2 relaxation time [19]: 122 ms
- T1 relaxation time [20]: 122 ms
- T2 relaxation time [20]: 89 ms
- Approximate ED50, intravenous dose to reduce tissue T1 by 50% (Fat, rabbits, 15 min): 11.94 mmol/kg
- T1 relaxation time [21]: 370 ms
- T2 relaxation time [21]: 64 ms
- T1 relaxation time [22]: 222 ms
- T2 relaxation time [22]: 56 ms
- T1 relaxation time [23]: 104 ms
- T2 relaxation time [23]: 43 ms
- T1 relaxation time [24]: 84 ms
- T2 relaxation time [24]: 39 ms
- Approximate ED50, intravenous dose to reduce tissue T1 by 50% (Heart, rabbits, 15 min): 0.037 mmol/kg
- Approximate ED50, intravenous dose to reduce tissue T2 by 50% (Heart, rabbits, 15 min): 0.38 mmol/kg
- T1 relaxation time [25]: 245 ms
- T2 relaxation time [25]: 65 ms
- T1 relaxation time [26]: 155 ms
- T2 relaxation time [26]: 52 ms
- T1 relaxation time [27]: 123 ms
- T2 relaxation time [27]: 43 ms
- T1 relaxation time [28]: 166 ms
- T2 relaxation time [28]: 53 ms
- Approximate ED50, intravenous dose to reduce tissue T1 by 50% [29]: 0.050 mmol/kg
- Approximate ED50, intravenous dose to reduce tissue T2 by 50% [29]: 0.19 mmol/kg
- T1 relaxation time [30]: 92 ms
- T2 relaxation time [30]: 41 ms
- T1 relaxation time [31]: 49 ms
- T2 relaxation time [31]: 25 ms
- T1 relaxation time [32]: 28 ms
- T2 relaxation time [32]: 18 ms
- T1 relaxation time [33]: 143 ms
- T2 relaxation time [33]: 87 ms
- Approximate ED50, intravenous dose to reduce tissue T2 by 50% (Liver, rabbits, 15 min): 0.04 mmol/kg
- Approximate ED50, intravenous dose to reduce tissue T1 by 50% (Liver, rabbits, 15 min, listed as Dihydrogen Bis(N-[N′-(2,6-dimethylphenyl)carbamoylmethyl]iminodiaceto)manganese(, Trihydrate)): 0.0067 mmol/kg
- Approximate ED50, intravenous dose to reduce tissue T1 by 50% (Liver, rabbits, 15 min, listed as dihydrogen bis(N-[N′-(2,6-dimethylphenyl)carbamoylmethyl]-iminodiaceto)manganese, Trihydrate): less than 0.01 mmol/kg
- T1 relaxation time [34]: 464 ms
- T2 relaxation time [34]: 91 ms
